{
  "source": "patent US20260191853A1",
  "about": "“METHOD OF TREATING DRUG-INDUCED BRADYARRHYTHMIA” (OSAKA UNIVERSITY, priority 2022, published 2026)",
  "assay_type_in_all_cases": "in vivo",
  "key": {"beagle dog": {"system": "beagle dog", "test": "Therapeutic effect on verapamil-induced bradycardia in conscious beagle dog", "conditions": "FIG. 10", "procedure": "A peripheral venous path was secured with an 18 G needle in the right forelimb of a beagle dog (body weight: about 10 kg, female, available from Oriental Yeast Co., Ltd.), and then held on an operating table. Heart rate was monitored with an electrocardiographic monitor worn on the animal. A manchette was worn on the left forelimb, and blood pressure was measured with an Omron automatic electronic sphygmomanometer. The left ventricular function was measured by the M-mode method using the echocardiographic left parasternal short-axis two-chamber view. After stabilization of the heart rate, verapamil (intravenous injection of Vasolan, available from Eisai Co., Ltd.) was administered by continuous intravenous injection at a dose of 0.8 mg/kg/hour with a syringe pump. About 30 minutes after the initiation of administration, the dose was increased to 2.4 mg/kg/hour, and continuous infusion was continued. Since 2:1 atrioventricular block was continuously determined 17 minutes after an increase in the dose, the administration of verapamil was discontinued. Subsequently, saline and compound (I) dihydrochloride (0.01 mg/kg, 0.1 mg/kg, 1 mg/kg) were administered by bolus intravenous injection at 10-minute intervals. About 10 minutes after each administration, electrocardiogram, heart rate, blood pressure, and left ventricular function were measured and evaluated in a stable state. […]"}, "Hartley guinea pigs [1]": {"system": "Hartley guinea pigs", "test": "Effect on fingolimod-induced decrease in blood lymphocytes in guinea pig", "conditions": "compound (I) 10 or 30 mg/kg oral gavage 30 min before fingolimod hydrochloride 0.1 mg/kg oral; 5 and 24 hours; FIG. 7", "procedure": "Hartley guinea pigs (8 weeks old, male, available from Japan SLC, Inc.) were fasted for about 16 hours, and then a solvent or compound (I) (free form) was administered by oral gavage to each animal at a dose of 10 or 30 mg/kg (volume: 5 mL/kg). The solvent used was 0.5 w/v % methyl cellulose 400 solution (available from FUJIFILM Wako Pure Chemical Corporation). Thirty minutes after the administration, a solvent or fingolimod hydrochloride was administered by oral gavage to the animal at a dose of 0.1 mg/kg (volume: 5 mL/kg). The solvent used was saline (available from Otsuka Pharmaceutical Factory, Inc.). Blood was collected from the jugular vein, the subclavian vein, or the abdominal vena cava before administration of compound (I) and 5 and 24 hours after administration of fingolimod hydrochloride. Blood cell components were analyzed with a multi-item automatic blood cell counter (XN-1000, available from Sysmex Corporation). The plasma was collected by centrifuging the blood and cryopreserved at about −20° C. After thawing of the plasma, plasma drug concentrations were measured using LC/MS/MS after deproteinization with acetonitrile.\nIn FIG. 7, the measurements are shown as mean±standard error, and (I) denotes compound (I)."}, "Hartley guinea pigs [2]": {"system": "Hartley guinea pigs", "test": "Termination effect on fingolimod-induced bradyarrhythmia in isoflurane-anesthetized guinea pig model", "text": "Hartley guinea pigs (7 to 10 weeks old, male, available from Japan SLC, Inc.) were subjected to anesthetic induction by inhalation of isoflurane (available from Pfizer Japan Inc.), and each animal was held on an operating table having a heater function. The trachea was incised, and a tracheal cannula (KN-375, available from Natsume Seisakusho Co., Ltd.) was inserted. The tracheal cannula was connected to a ventilator (SN-480-7, available from Shinano Seisakusho Co., Ltd.), and artificial respiration was controlled by supplying 100% oxygen at a volume of 10 mL and a ventilation rate of 60 times/minute. Isoflurane (available from Pfizer Japan Inc.) anesthesia (about 1 to 4%, carrier gas: 100% oxygen) was used for maintenance of anesthesia. A catheter (BD intramedic polyethylene tubing PE50, available from Becton, Dickinson and Company) charged with 50 units/mL heparin (available from AY PHARMACEUTICALS CO., LTD.) was inserted into each of the carotid artery and the jugular vein and placed in the blood vessel. Systemic blood pressure was measured with a high-sensitivity DC amplifier (AD-611J, available from NIHON KOHDEN CORPORATION) via the catheter placed in the carotid artery. Electrodes were attached to the body surface, and a body surface electrocardiogram was measured with a high-sensitivity amplifier (AB-611J, available from NIHON KOHDEN CORPORATION). Blood pressure and electrocardiogram data were acquired and analyzed with PowerLab/Labchart system (available from ADInstruments). After stabilization of each parameter, fingolimod hydrochloride (available from Nissan Chemical Corporation) was continuously administered intravenously at 0.1 mg/kg for 10 minutes via the catheter placed in the jugular vein, followed by observation of the presence or absence of atrioventricular block. After confirmation that atrioventricular block continued for 10 minutes from the onset thereof, a solvent or compound (I) dihydrochloride was continuously administered intravenously at 0.1 mg/kg for 30 minutes, and the effect of terminating atrioventricular block was observed during the intravenous administration. The solvent used was saline (available from Otsuka Pharmaceutical Factory, Inc.). Data were recorded and blood was collected 10, 20, and 30 minutes after initiation of administration of compound (I) dihydrochloride and at the time of termination of atrioventricular block. The observation was terminated 30 minutes after initiation of the administration, and the animal was euthanized by exsanguination or intravenous administration of a large amount of saturated potassium chloride solution under isoflurane anesthesia. Data were analyzed for the presence or absence of the termination, the time required for the termination, and the plasma concentration of compound (I) at the time of termination. The plasma was collected by centrifuging the blood and cryopreserved at about −20° C. After thawing of the plasma, plasma drug concentrations were measured using LC/MS/MS after deproteinization with acetonitrile.\nIn Table 1, the measurements are shown as mean±standard error."}, "Wistar rats": {"system": "Wistar rats", "test": "Therapeutic effect on propranolol-induced bradyarrhythmia in conscious rat (telemetry)", "conditions": "compound (I) dihydrochloride 1 mg/kg i.p. about 30 min after propranolol 1 mg/kg i.p.; awake rats; FIG. 8", "text": "Wistar rats (10 weeks old, male, available from Kiwa Laboratory Animals Co., Ltd.) were anesthetized by inhalation of Sevofrane (available from Maruishi Pharmaceutical Co., Ltd.) and held on an operating table. An implantable telemetry transmitter ETA-F10 (DSI) was placed subcutaneously in each rat, and one lead was fixed to each of the upper right chest and the left lower chest. After being fully awakened, the rat was placed in a cage on the receiving board, and a body surface electrocardiogram was measured with a high-sensitivity amplifier. Electrocardiogram data were acquired and analyzed with LabChart Pro & LabChart module (available from Bio Research Center Co., Ltd.). After stabilization of the heart rate, propranolol (Inderal Injection, available from AstraZeneca K.K.) was administered by intraperitoneal injection at a dose of 1 mg/kg. After the elapse of about 30 minutes, the stabilization of the heart rate was determined, and then saline or compound (I) dihydrochloride was administered by intraperitoneal injection at a dose of 1 mg/kg. Thirty minutes after the administration, the heart rate in a stable state was measured for evaluation. The solvent used was saline (available from Otsuka Pharmaceutical Factory, Inc.). […]"}},
  "note": "“Also recorded” adds a separate entry of the source.",
  "data": [
    {"smiles": "Cc1cc(CO)nc2cc3c(cc12)OC(C)(C)[C@H](O)[C@H]3NCCc1ccccc1", "note": "[Compound (I), (3R,4S)-7-Hydroxymethyl-2,2,9-trimethyl-4-(phenethylamino)-3,4-dihydro-2H-pyrano[2,3-g]quinoline-3-ol]", "values": [
      {"measurement": "verapamil-induced bradyarrhythmia (2:1 atrioventricular block)", "setting": "beagle dog; 0.1 mg/kg bolus i.v.", "value": "exhibited a termination effect"},
      {"measurement": "verapamil-induced bradyarrhythmia (2:1 atrioventricular block)", "setting": "beagle dog; compound (I) dihydrochloride 0.01, 0.1, 1 mg/kg bolus i.v. after verapamil infusion up to 2.4 mg/kg/hour", "value": "improved bradyarrhythmia; also recorded: recovery to 1:1 atrioventricular conduction"},
      {"measurement": "effect on the peripheral blood lymphocyte decreasing action of fingolimod", "setting": "Hartley guinea pigs [1]", "value": "does not inhibit"},
      {"measurement": "fingolimod-induced bradyarrhythmia (atrioventricular block: A-V block) termination", "setting": "Hartley guinea pigs [2]; compound (I) dihydrochloride 0.1 mg/kg continuous i.v.", "value": "completely terminated"},
      {"measurement": "Number of cases where atrioventricular block was terminated", "setting": "Hartley guinea pigs [2]; fingolimod-induced block, compound (I) dihydrochloride 0.1 mg/kg continuous i.v. for 30 minutes", "value": "5/5"},
      {"measurement": "Time required for the termination of atrioventricular block", "setting": "Hartley guinea pigs [2]; fingolimod-induced block, compound (I) dihydrochloride 0.1 mg/kg continuous i.v. for 30 minutes, mean±standard error", "value": "750 ± 43", "unit": "s"},
      {"measurement": "Compound (I) concentration at the time of termination", "setting": "Hartley guinea pigs [2]; plasma, fingolimod-induced block, 0.1 mg/kg continuous i.v. for 30 minutes, mean±standard error", "value": "30.9 ± 1.9", "unit": "ng/mL"},
      {"measurement": "propranolol-induced bradycardia (heart rate)", "setting": "Wistar rats", "value": "improved bradycardia"}
    ]}
  ]
}
